PubChem BioAssay AID256 (DTP/NCI, 2004)
Where “and” joins values, the source holds several entries; their conditions need not be identical. Equal entries are not always repeated. Inconclusive results and toxic doses are left out. How the source made its calls: active means survival T/C of 150% or more; inactive means T/C below 125% in these data.

Tested on: CD2F1 mice, L1210 leukemia ip, survival T/C
Assay: NCI In Vivo Anticancer Drug Screen. Data for tumor model L1210 Leukemia (intraperitoneal) in CD2F1 (CDF1) mice
Settings: endpoint: mean survival time, higher = longer survival
Method in brief: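 Activity against a transplanted murine tumor was judged by comparing the compound group with a vehicle group. The outcome in the treated animals was divided by that in the controls.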

[1] = dose: 25.0 mg/kg/injection, schedule: Q01DX001 (ip), vehicle: saline with Tween-80
[2] = dose: 50.0 mg/kg/injection, schedule: Q01DX001 (ip), vehicle: saline with Tween-80
[3] = dose: 100.0 mg/kg/injection, schedule: Q01DX001 (ip), vehicle: saline with Tween-80
[4] = dose: 100.0 mg/kg/injection, schedule: Q04DX003 (ip), vehicle: saline with Tween-80
[5] = dose: 200.0 mg/kg/injection, schedule: Q04DX003 (ip), vehicle: saline with Tween-80
[6] = dose: 400.0 mg/kg/injection, schedule: Q04DX003 (ip), vehicle: saline with Tween-80
[7] = dose: 100.0 mg/kg/injection, schedule: Q04DX003 (ip), vehicle: saline

Measured: T/C

COC(CN(C)Cc1c[nH]c2ccccc12)OC
inactive: dose: 75.0 mg/kg/injection, schedule: Q01DX001 (ip), vehicle: saline 107 % of control

Cc1ccc2c(c1)=N/C(=N\c1nc(O)c(O)[nH]1)N=2
inactive: dose: 100.0 mg/kg/injection, schedule: Q01DX009 (ip), vehicle: saline with Tween-80 104 % of control | dose: 200.0 mg/kg/injection, schedule: Q01DX009 (ip), vehicle: saline with Tween-80 92 % of control | dose: 400.0 mg/kg/injection, schedule: Q01DX009 (ip), vehicle: saline with Tween-80 104 % of control

OCCOCC12c3ccccc3C3C(c4ccccc41)C32 (stereo not given)
inactive: [1] 91 % of control | [2] 97 % of control | [3] 105 % of control | dose: 200.0 mg/kg/injection, schedule: Q01DX001 (ip), vehicle: saline with Tween-80 94 % of control

CCCCC(CC)CNC1=C(Cl)C(=O)c2ccccc2C1=O (stereo not given)
inactive: dose: 25.0 mg/kg/injection, schedule: Q04DX003 (ip), vehicle: saline with Tween-80 98 % of control | dose: 50.0 mg/kg/injection, schedule: Q04DX003 (ip), vehicle: saline with Tween-80 106 % of control | [4] 95 % of control

COC(=O)C(N)CSSCC(N)C(=O)OC (stereo not given)
inactive: dose: 100.0 mg/kg/injection, schedule: Q01DX001 (ip), vehicle: saline 108 % of control | dose: 100.0 mg/kg/injection, schedule: Q01DX009 (ip), vehicle: saline 102 % of control | dose: 200.0 mg/kg/injection, schedule: Q01DX001 (ip), vehicle: saline 97 % of control | dose: 200.0 mg/kg/injection, schedule: Q01DX009 (ip), vehicle: saline 94 % of control | dose: 400.0 mg/kg/injection, schedule: Q01DX001 (ip), vehicle: saline 100 % of control | dose: 400.0 mg/kg/injection, schedule: Q01DX009 (ip), vehicle: saline 94 % of control

OC1(c2ccccc2)CCN(C/C=C/c2ccccc2)CC1
inactive: [1] 102 % of control | [2] 101 % of control | [3] 102 % of control and 103 % of control

CN(/N=C/c1ccccc1)C(=S)Nc1ccccc1
inactive: dose: 31.25 mg/kg/injection, schedule: Q04DX003 (ip), vehicle: Klucel (hydroxypropylcellulose) (HPC) 101 % of control | dose: 62.5 mg/kg/injection, schedule: Q04DX003 (ip), vehicle: Klucel (hydroxypropylcellulose) (HPC) 103 % of control | dose: 125.0 mg/kg/injection, schedule: Q04DX003 (ip), vehicle: Klucel (hydroxypropylcellulose) (HPC) 100 % of control

O=c1cc[nH]c(=O)n1C1OC(CO)C(O)C1O (stereo not given)
inactive: dose: 100.0 mg/kg/injection, schedule: Q01DX005 (ip), vehicle: saline 104 % of control | dose: 200.0 mg/kg/injection, schedule: Q01DX005 (ip), vehicle: saline 113 % of control

CCOC(=O)CN/N=C(\N)CSS(=O)(=O)O
inactive: [4] 97 % of control | [5] 97 % of control | [6] 100 % of control

Cc1ccc(C(C)(C)C[P+](C)(c2ccccc2)c2ccccc2)cc1
inactive: dose: 50.0 mg/kg/injection, schedule: Q01DX009 (ip), vehicle: Klucel (hydroxypropylcellulose) (HPC) 100 % of control | dose: 100.0 mg/kg/injection, schedule: Q01DX009 (ip), vehicle: Klucel (hydroxypropylcellulose) (HPC) 102 % of control

O=C(O)CC1(Br)C(=O)Nc2ccccc21 (stereo not given)
inactive: dose: 100.0 mg/kg/injection, schedule: Q04DX003 (ip), vehicle: Klucel (hydroxypropylcellulose) (HPC) 98 % of control | dose: 200.0 mg/kg/injection, schedule: Q04DX003 (ip), vehicle: Klucel (hydroxypropylcellulose) (HPC) 102 % of control | dose: 400.0 mg/kg/injection, schedule: Q04DX003 (ip), vehicle: Klucel (hydroxypropylcellulose) (HPC) 98 % of control

O=[N+]([O-])c1ccc(N/N=C/c2cccc(CO)c2)c([N+](=O)[O-])c1
inactive: [7] 94 % of control | dose: 200.0 mg/kg/injection, schedule: Q04DX003 (ip), vehicle: saline 88 % of control | dose: 400.0 mg/kg/injection, schedule: Q04DX003 (ip), vehicle: saline 96 % of control

CCCCCCCCCCCCCCCCCC(=O)CC
inactive: dose: 100.0 mg/kg/injection, schedule: Q04DX002 (ip), vehicle: saline + alcohol 93 % of control | dose: 200.0 mg/kg/injection, schedule: Q04DX002 (ip), vehicle: saline + alcohol 93 % of control | dose: 400.0 mg/kg/injection, schedule: Q04DX002 (ip), vehicle: saline + alcohol 93 % of control

COc1cc2c(c(Oc3ccc(C)cc3)c1)CN(C)CC2
inactive: dose: 25.0 mg/kg/injection, schedule: Q04DX003 (ip), vehicle: saline 105 % of control | dose: 50.0 mg/kg/injection, schedule: Q04DX003 (ip), vehicle: saline 100 % of control | [7] 105 % of control

C=CCc1cc(OC)ccc1OC(C)=O
inactive: [4] 113 % of control | [5] 97 % of control | [6] 105 % of control
